Values of other authors as cited in patent US20230022136A1, “DIFFUSIVITY CONTRAST AGENTS FOR MEDICAL IMAGING” (priority 2020, published 2023).

Conditions: attributed to increased hydrogen bonding of the water molecules

increase of the diffusion coefficient of glucose through water: 25-30%
SMILES: CC(/C=C/C=C(\C)C(=O)[O-])=C\C=C\C=C(C)\C=C\C=C(/C)C(=O)[O-].[Na+].[Na+] [Trans-Sodium crocetinate]
